Measured values as given in paper PMC7151078, “A Novel NMDA Receptor Antagonist Protects against Cognitive Decline Presented by Senescent Mice” (Pharmaceutics, 2020).

Key:
CYP3A4 = biological target: T1, CYP3A4 (Homo sapiens, UniProt P08684); test: Cytochrome inhibition, fluorescent detection (7-BFC and DBF substrates); type: in vitro ADME
T1 construct: host or cells: insect cell microsomes
Protocol: To screen the inhibition potential of the compounds, recombinant human cytochrome P450 enzymes (CYP1A2, CYP2C9, CYP2C19, CYP2D6, and CYP3A4) and probe substrates were used with the fluorescent detection method. Incubations were conducted in 200-µL volume 96 well microtiter plates (COSTAR 3915). Addition of cofactor-buffer mixture (KH2PO4 buffer, 1.3 mM NADP+, 3.3 mM MgCl2, 3.3 mM Glucose-6-phosphate and 0.4 U/mL Glucose-6-phosphate Dehydrogenase), supersomes control, standard inhibitors (Furafyline, Tranylzypromine, Ketoconazole, Sulfaphenazole, and Quinidine; from Sigma Aldrich), and test compounds to plates were carried out using a a liquid handling station (Zephyr Caliper). The plate was then pre-incubated at 37 °C for 5 min, and the reaction initiated by the addition of pre-warmed enzyme/substrate (E/S) mix. […] Fluorescence per well was measured using a fluorescence plate reader (Tecan M1000 pro), and the percentage of inhibition was calculated.

[1] = Microsomal stability in mice microsomes; type: in vitro ADME; conditions: 37 °C, 0-60 min
Protocol: (§1) The human, rat, and mice microsomes employed were purchased from Tebu-Xenotech. The compound was incubated at 37 °C with the microsomes in a 50 mM phosphate buffer (pH = 7.4) containing 30 mM MgCl2, 10 mM NADP, 100 mM glucose-6-phosphate and 20 U/mL glucose-6-phosphate-dehydrogenase. Samples (75 µL) were taken from each well at 0, 10, 20, 40, and 60 min and transferred to a plate containing 4 °C 75 µL acetonitrile. Then, 30 µL of 0.5% formic acid in water was added to improve the chromatographic conditions. The plate was centrifuged (46,000× g, 30 min) and supernatants were taken and analyzed in a UPLC-MS/MS (Xevo-TQD, Waters) by employing a BEH C18 column and an isocratic gradient of 0.1% formic acid in water: 0.1% formic acid acetonitrile (60:40) for 5 minutes and a flow of 0.25 mL/min. The metabolic stability of the compounds was calculated from the logarithm of remaining compounds at each time point studied.

SAMR1 and SAMP8 mice [2] = test: Oxidative stress: hydrogen peroxide levels (fluorimetric kit); type: in vivo, mouse; conditions: hippocampus, both RL-208 treated mice groups vs control groups
Protocol: (§2) Male SAMR1 and SAMP8 mice (n = 41) with 20-weeks-old were used to carry out cognitive and molecular analysis. The animals were randomly divided into four groups: SAMR1 control (SR1 Ct) group (n = 11), SAMP8 control (SP8 Ct) group (n = 8), SAMR1 treated with RL-208 (SR1 RL-208 (5 mg/Kg)) group (n = 10) and SAMP8 treated with RL-208 (SP8 RL-208 (5 mg/Kg)) group (n = 12). Animals had free access to food and water, under standard temperature conditions (22±2 °C) and 12h:12h light-dark cycles (300 lux/0 lux). RL-208, (3,4,8,9-tetramethyltetracyclo[4.4.0.0^3,9.0^4,8]dec-1-yl)-methylamine hydrochloride, (5 mg/kg/day) was administered through drinking water for four weeks before starting the cognitive test. RL-208 was administered up to euthanasia (Figure 1A). Water consumption was controlled each week for each cage and strain. Afterwards, RL-208 concentration was adjusted accordingly to reach the optimal dose for each cage. […]

[3] = Microsomal stability in rat microsomes; type: in vitro ADME; conditions: 37 °C, 0-60 min
Protocol: as §1

SAMR1 and SAMP8 mice [4] = test: Three-chamber test (TCT); type: in vivo, mouse; conditions: SAMP8 strain, 5 mg/kg/day, vs SP8 Ct
Protocol: as §2, with “strain.” for “strain. Afterwards, RL-208 concentration was adjusted accordingly to reach the optimal dose for each cage.”
The three-chamber test (TCT) was used to assess preference for social novelty (time spent with a novel intruder in contrast with a familiar one) and sociability (time spent with rodents). […] Each test consists of 15 minutes and is recorded with a camera. […] The time spent in each chamber was evaluated. Then, an intruder (same-sex and age) was added to one of the rooms in a metal cup, and behaviour is recorded for 10 minutes. The time spent in each chamber is evaluated as well as the time interacting with the intruder (e.g., sniffing, rears, entries in each chamber).

T1 sequence (P08684 whole entry): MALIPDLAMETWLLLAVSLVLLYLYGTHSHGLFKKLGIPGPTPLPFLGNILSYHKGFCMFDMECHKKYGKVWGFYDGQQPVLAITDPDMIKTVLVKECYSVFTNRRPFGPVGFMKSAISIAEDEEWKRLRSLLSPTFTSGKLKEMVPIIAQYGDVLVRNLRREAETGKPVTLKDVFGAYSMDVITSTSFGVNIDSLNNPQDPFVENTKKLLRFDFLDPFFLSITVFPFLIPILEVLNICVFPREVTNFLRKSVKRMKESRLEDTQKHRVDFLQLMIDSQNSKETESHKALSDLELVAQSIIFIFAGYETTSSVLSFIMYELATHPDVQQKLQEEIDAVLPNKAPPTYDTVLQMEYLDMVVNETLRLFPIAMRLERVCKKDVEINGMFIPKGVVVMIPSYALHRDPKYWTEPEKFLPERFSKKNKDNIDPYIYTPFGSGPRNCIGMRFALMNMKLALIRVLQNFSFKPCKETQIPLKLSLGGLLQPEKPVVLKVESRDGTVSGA

CYP3A4 (BFC) inhibition (CYP3A4; recombinant human CYP3A4, substrate BFC): 35 ± 4% | CYP3A4 (DBF) inhibition (CYP3A4; recombinant human CYP3A4, substrate DBF): 3 ± 1% | microsomal stability [1]: good | microsomal stability [3]: good
Structure (SMILES): CC12CC3CC1(C)C1(C)CC3(CN)CC21C.Cl [RL-208, (3,4,8,9-tetramethyltetracyclo [4.4.0.0^3,9.0^4,8]dec-1-yl)methylamine hydrochloride]
hydrogen peroxide (ROS) levels (SAMR1 and SAMP8 mice [2]): significant decrease | time sniffing the intruder (sociability) (SAMR1 and SAMP8 mice [4]): significantly augmented
